Test results reported in PMC8269283 (ACS chemical neuroscience, 2018).
Where two headings read alike, the source gives them in different places.

How the values were obtained:
SERT [1] = molecular target: T1, SERT (Rattus norvegicus, UniProt P31652); test: transporter-mediated release in rat brain synaptosomes, SERT; format: biochemical
DAT [2] = molecular target: T2, DAT (Rattus norvegicus, UniProt P23977); test: transporter-mediated release in rat brain synaptosomes, DAT; format: biochemical; settings: for DAT vs SERT Selectivity: SERT EC50 ÷ DAT EC50
NET [3] = settings: read-out: IC50 reuptake inhibitor at NET; cited from earlier work
SERT [4] = settings: read-out: IC50 reuptake inhibitor at SERT; cited from earlier work
DAT [5] = settings: cited from earlier work
SERT [6] = settings: cited from earlier work
SERT [7] = molecular target: T1, SERT; settings: cited from earlier work
NET [8] = molecular target: NET (Rattus norvegicus, UniProt Q63380); settings: read-out: EC50 as NET releasing agent, previously reported; cited from earlier work
DAT [9] = molecular target: T2, DAT; settings: cited from earlier work
NET [10] = settings: read-out: IC50 reuptake inhibitor at NET; cited from earlier work; remark: listed apart in the source
SERT [11] = settings: read-out: IC50 reuptake inhibitor at SERT; cited from earlier work; remark: listed apart in the source
DAT [12] = settings: read-out: IC50 reuptake inhibitor at DAT; cited from earlier work

T2 sequence (P23977 whole entry): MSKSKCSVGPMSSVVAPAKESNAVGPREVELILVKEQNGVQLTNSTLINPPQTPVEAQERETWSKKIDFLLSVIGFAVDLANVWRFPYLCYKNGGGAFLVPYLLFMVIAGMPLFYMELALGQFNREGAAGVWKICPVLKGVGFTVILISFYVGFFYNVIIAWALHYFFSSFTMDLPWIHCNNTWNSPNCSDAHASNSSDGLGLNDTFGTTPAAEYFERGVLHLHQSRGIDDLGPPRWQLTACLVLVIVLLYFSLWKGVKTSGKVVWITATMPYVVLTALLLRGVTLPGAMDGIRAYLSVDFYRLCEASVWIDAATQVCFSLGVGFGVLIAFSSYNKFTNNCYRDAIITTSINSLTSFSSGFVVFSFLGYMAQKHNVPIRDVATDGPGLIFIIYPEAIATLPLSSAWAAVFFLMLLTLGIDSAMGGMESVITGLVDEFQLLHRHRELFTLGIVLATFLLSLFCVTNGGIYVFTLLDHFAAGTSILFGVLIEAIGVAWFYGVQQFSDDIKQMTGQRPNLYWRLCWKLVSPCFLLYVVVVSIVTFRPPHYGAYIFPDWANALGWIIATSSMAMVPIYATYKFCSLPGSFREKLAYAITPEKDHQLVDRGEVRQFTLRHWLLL
T1 sequence (P31652 whole entry): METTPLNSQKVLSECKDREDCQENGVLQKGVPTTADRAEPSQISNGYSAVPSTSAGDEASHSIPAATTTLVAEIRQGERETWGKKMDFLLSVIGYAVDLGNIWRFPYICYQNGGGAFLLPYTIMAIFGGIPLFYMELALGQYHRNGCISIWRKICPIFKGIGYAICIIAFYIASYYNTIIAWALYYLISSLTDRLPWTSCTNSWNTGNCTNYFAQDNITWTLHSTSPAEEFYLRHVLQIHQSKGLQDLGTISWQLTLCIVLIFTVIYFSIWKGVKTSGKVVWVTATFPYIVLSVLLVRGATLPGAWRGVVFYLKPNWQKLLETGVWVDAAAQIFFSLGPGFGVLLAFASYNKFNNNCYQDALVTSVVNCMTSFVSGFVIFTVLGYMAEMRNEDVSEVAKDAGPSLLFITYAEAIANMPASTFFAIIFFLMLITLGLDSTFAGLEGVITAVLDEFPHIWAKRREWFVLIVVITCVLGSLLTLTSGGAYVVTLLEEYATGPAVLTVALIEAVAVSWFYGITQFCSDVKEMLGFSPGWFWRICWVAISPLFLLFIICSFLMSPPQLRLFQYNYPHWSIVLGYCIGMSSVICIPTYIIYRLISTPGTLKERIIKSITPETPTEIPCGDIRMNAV
Sequence of NET (Rattus norvegicus, UniProt Q63380) (Q63380 1-617): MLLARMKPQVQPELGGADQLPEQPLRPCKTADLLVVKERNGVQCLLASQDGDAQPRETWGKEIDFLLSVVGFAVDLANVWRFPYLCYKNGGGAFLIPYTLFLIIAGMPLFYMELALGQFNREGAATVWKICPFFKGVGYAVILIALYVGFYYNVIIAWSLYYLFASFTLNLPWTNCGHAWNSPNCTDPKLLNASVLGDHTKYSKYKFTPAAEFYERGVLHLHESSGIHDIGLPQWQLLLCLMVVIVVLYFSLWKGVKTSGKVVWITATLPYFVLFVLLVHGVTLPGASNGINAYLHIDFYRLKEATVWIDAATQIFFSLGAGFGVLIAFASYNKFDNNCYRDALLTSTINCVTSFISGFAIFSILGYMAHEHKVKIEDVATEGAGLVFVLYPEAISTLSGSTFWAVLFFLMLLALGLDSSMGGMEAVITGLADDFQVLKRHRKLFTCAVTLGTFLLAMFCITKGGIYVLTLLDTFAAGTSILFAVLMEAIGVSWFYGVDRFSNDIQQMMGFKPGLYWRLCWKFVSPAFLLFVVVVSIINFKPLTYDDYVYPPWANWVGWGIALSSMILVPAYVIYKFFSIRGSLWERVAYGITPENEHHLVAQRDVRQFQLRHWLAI

Row | Compound | EC50 (SERT [1]) [nM] | EC50 (DAT [2]) [nM] | DAT vs SERT Selectivity (DAT [2]; 3-substituted series) | DAT vs SERT Selectivity (DAT [2]; 2-substituted series) | also measured
1 | CNC(C)C(=O)c1cccc(OC)c1.Cl (stereo not drawn) [3d, 2-(Methylamino)-1-(3-methoxyphenyl)propan-1-one Hydrochloride] | 683 | 109 | 6 | – | –
2 | CNC(C)C(=O)c1cccc(Br)c1.Cl (stereo not drawn) [3b, 1-(3-Bromophenyl)-2-(methylamino)propan-1-one Hydrochloride] | 136 | 21 | 6 | – | IC50 (NET [3]): 158 nM; IC50 (SERT [4]): 2000 nM
3 | CNC(C)C(=O)c1ccccc1Br.Cl (stereo not drawn) [2b, 1-(2-Bromophenyl)-2-(methylamino)propan-1-one Hydrochloride] | 2840 | 650 | – | 4 | –
4 | CNC(C)C(=O)c1cccc(C(F)(F)F)c1.Cl (stereo not drawn) [3e, 2-(Methylamino)-1-(3-(trifluoromethyl)phenyl)propan-1-one Hydrochloride] | 281 | 714 | 0.4 | – | –
5 | CNC(C)C(=O)c1ccccc1Cl.Cl (stereo not drawn) [2a, 1-(2-Chlorophenyl)-2-(methylamino)propan-1-one Hydrochloride] | 2810 | 179 | – | 16 | –
6 | CNC(C)C(=O)c1ccccc1C(F)(F)F (stereo not drawn) [2-CF3 analog] | – | – | – | – | less potent than 3e as a releasing agent at DAT (DAT [5]): > 10 fold; less potent than 3e as a releasing agent at SERT (SERT [6]): > 10 fold
7 | CNC(C)C(=O)c1ccccc1OC.Cl (stereo not drawn) [2d, 1-(2-Methoxyphenyl)-2-(methylamino)propan-1-one Hydrochloride] | 7220 | 920 | – | 8 | –
8 | CNC(C)C(=O)c1ccccc1C.Cl (stereo not drawn) [2c, 2-(Methylamino)-1-(2-methylphenyl)propan-1-one Hydrochloride] | 490 | 81 | – | 6 | –
9 | CNC(C)C(=O)c1ccc(C(F)(F)F)cc1 (stereo not drawn) [4e] | – | – | – | – | SERT selectivity (SERT vs DAT) as a releasing agent (SERT [7]): 14 fold
10 | CNC(C)C(=O)c1cccc(Cl)c1 (stereo not drawn) [3a, 3-Chloromethcathinone] | – | – | 8 | – | EC50 (SERT [7]; read-out: EC50 as SERT releasing agent, previously reported): 212 nM; EC50 (NET [8]): 40 nM; EC50 (DAT [9]; read-out: EC50 as DAT releasing agent, previously reported): 29 nM
11 | CNC(C)C(=O)c1ccccc1 (stereo not drawn) [compound 1, Methcathinone] | – | – | 279 | 103 | selectivity for DAT vs SERT as a releasing agent (DAT [9]): > 300 fold
12 | CNC(C)C(=O)c1cccc(C)c1.Cl (stereo not drawn) [3c, 2-(Methylamino)-1-(3-methylphenyl)propan-1-one Hydrochloride] | 268 | 28 | 10 | – | IC50 (NET [10]): 270 nM; IC50 (SERT [11]): 9500 nM; IC50 (DAT [12]): 2600 nM
